Measured values taken from BindingDB's records for doi:10.1006/jmbi.2000.3966 (Max-Planck-Institut Fuer Biochemie, 2000).

How the values were obtained:
Experiment in all cases: Determination of Inhibition Constants
Details in all cases: pH 8; 25 °C
[1] = molecular target: Urokinase-type plasminogen activator (Homo sapiens, UniProt P00749)
Description: (§1) The measurements were carried out on a microplate reader. Two concentrations of the substrate and five concentrations of the inhibitor were used in the assay. […] The Ki-values were calculated according to Dixon using a linear regression program. The Ki-values reported are means from at least three determinations.

Serine protease 1 = molecular target: T1, Serine protease 1 (Bos taurus, UniProt P00760)
T1 sequence (P00760 whole entry): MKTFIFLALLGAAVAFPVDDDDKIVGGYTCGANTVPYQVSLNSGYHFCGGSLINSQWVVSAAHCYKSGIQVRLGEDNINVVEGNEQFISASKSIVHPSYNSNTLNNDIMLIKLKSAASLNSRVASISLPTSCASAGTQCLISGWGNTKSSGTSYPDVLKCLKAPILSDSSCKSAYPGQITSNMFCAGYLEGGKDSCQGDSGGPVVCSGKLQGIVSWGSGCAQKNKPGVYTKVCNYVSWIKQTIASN
Description: as §1

[2] = molecular target: Tissue-type plasminogen activator (Homo sapiens, UniProt P00750)
Chain of Tissue-type plasminogen activator (P00750 whole entry): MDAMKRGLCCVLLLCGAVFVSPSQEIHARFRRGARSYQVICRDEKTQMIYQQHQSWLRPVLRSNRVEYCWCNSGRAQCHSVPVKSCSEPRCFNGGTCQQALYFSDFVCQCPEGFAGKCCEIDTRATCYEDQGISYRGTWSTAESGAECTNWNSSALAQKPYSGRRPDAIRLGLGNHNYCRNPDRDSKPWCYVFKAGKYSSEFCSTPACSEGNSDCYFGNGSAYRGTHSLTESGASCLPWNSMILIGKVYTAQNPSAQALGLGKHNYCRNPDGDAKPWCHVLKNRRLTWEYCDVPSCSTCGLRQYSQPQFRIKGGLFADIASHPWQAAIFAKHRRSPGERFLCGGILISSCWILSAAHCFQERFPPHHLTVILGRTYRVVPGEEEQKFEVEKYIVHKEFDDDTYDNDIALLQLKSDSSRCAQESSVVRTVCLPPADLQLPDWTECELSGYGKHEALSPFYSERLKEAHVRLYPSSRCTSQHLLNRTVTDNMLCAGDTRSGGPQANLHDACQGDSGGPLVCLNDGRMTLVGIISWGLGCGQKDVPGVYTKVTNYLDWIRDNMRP
Description: as §1

Ki [1] [µM]	Ki (Serine protease 1) [µM]	Ki [2] [µM]	SMILES
0.41	0.037	4.9	CCOC(=O)N1CCN(C(=O)C(Cc2cccc(C(=N)N)c2)NS(=O)(=O)c2c(C(C)C)cc(C(C)C)cc2C(C)C)CC1 (stereo not given)
–	0.6	8.7	CC(C)c1cc(C(C)C)c(S(=O)(=O)N[C@@H](Cc2cccc(C(=N)N)c2)C(=O)N2CCN(C(=O)CCN)CC2)c(C(C)C)c1 [3-[3-(4-beta-alanylpiperazin-1-yl)-3-oxo-2-({[2,4,6-tris(1-methylethyl)phenyl]sulfonyl}amino)propyl]benzenecarboximidamide]
2.4	46	> 1000	NC(N)=Nc1ccc(CNC(=O)NC23CC4CC(CC(C4)C2)C3)cc1 [3-adamantan-1-yl-1-[(4-carbamimidamidophenyl)methyl]urea]

SMILES	Ki [1] [µM]	Ki (Serine protease 1) [µM]	Ki [2] [µM]
N=C(N)NC(=O)c1nc(Cl)c(N)nc1N [3,5-diamino-N-carbamimidoyl-6-chloropyrazine-2-carboxamide]	–	32	> 1000
